Like-named read-outs stand apart in the source and are kept apart here.
Assays:
[1] = system: FCA-induced inflammation of the rat hind paw; test: FCA model of inflammatory pain (thermal hyperalgesia, plantar test); format: in vivo; details: for ED50: read-out: ED50 for reversal of FCA-induced thermal hyperalgesia
Method: Each experiment uses rats weighing between 200-260 g at the start of the experiment. The rats are group-housed and have free access to food and water at all times, except prior to oral administration of a compound of formula I when food is removed for 16 hours before dosing. A control group acts as a comparison to rats treated with a compound of formula I. The control group is administered the carrier for the compound of formula I. The volume of carrier administered to the control group is the same as the volume of carrier and compound of formula I administered to the test group.
To assess the actions of the compounds of formula I on the treatment or prevention of inflammatory pain the Freund's complete adjuvant (“FCA”) model of inflammatory pain is used. FCA-induced inflammation of the rat hind paw is associated with the development of persistent inflammatory mechanical and thermal hyperalgesia and provides reliable prediction of the anti-hyperalgesic action of clinically useful analgesic drugs (L. Bartho et al., “Involvement of Capsaicin-sensitive Neurones in Hyperalgesia and Enhanced Opioid Antinociception in Inflammation,” Naunyn-Schmiedeberg's Archives of Pharmacol. 342:666-670 (1990)). The left hind paw of each animal is administered a 50 μL intraplantar injection of 50% FCA. 24 hour post injection, the animal is assessed for response to noxious mechanical stimuli by determining the PWT, or to noxious thermal stimuli by determining the PWL, as described below. […] Responses to noxious mechanical or thermal stimuli are then determined 1, 3, 5 and 24 hours post administration. […]
The plantar test can be used to assess thermal hyperalgesia. For this test, hind paw withdrawal latencies (PWL) to a noxious thermal stimulus are determined using a plantar test apparatus (commercially available from Ugo Basile of Italy) following the technique described by K. Hargreaves et al., “A New and Sensitive Method for Measuring Thermal Nociception in Cutaneous Hyperalgesia,” Pain 32(1):77-88 (1988). […] Three latencies are determined at each time point and averaged. […]

human TRPV1 [2] = target: T1, human TRPV1 (Homo sapiens (Human), UniProt Q8NER1); test: pH-based assay, Protocol 2 (hpH-CHO); format: cell-based; details: TRPV1/CHO cells, pH 5.0-5.1; mean ± SEM; read-out: TRPV1 IC50 Potency Human pH CHO (hpH-CHO)
T1 sequence (Q8NER1 whole entry): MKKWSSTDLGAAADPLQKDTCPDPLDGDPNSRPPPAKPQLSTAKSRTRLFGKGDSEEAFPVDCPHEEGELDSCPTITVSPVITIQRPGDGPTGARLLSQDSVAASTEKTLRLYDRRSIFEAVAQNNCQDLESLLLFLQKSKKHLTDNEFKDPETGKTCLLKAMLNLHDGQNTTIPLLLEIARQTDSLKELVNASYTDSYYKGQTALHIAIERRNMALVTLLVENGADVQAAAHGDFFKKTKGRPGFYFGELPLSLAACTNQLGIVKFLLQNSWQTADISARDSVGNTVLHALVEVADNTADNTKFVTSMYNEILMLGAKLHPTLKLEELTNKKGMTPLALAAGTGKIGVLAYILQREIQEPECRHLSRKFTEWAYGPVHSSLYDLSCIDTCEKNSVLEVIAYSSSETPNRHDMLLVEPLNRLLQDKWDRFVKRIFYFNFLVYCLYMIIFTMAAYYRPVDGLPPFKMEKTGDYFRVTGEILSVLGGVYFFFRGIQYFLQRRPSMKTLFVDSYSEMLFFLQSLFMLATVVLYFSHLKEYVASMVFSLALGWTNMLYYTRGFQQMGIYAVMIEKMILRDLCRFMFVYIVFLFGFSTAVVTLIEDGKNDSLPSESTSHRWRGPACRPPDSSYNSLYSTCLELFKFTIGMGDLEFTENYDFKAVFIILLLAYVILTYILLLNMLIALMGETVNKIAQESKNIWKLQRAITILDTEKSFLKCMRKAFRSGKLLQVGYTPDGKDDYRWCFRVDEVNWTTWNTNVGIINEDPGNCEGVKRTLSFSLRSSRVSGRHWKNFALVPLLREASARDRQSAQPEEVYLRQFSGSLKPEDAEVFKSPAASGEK
Source text: For Protocol 2, a Chinese Hamster Ovary cell line (CHO) that has been engineered to constitutively express human recombinant TRPV1 was used (TRPV1/CHO cells). The TRPV1/CHO cell line was generated as described below.
The resulting PCR products were purified from agarose gels using Gel Band Purification Kit (GE Healthcare Bioscience) and were subcloned into pCR-Blunt vector (Invitrogen). The cloned cDNA was fully sequenced using a fluorescent dye-terminator reagent (BigDye Terminator ver3.1 Cycle Sequencing Kit, Applied Biosystems) and ABI Prism 3100 genetic analyzer (Applied Biosystems). The pCR-Blunt vector containing the hTRPV1 cDNA was subjected to restriction digestion with EcoR1. […] The sequence of the cDNA encoding TRPV1 is available at GenBank accession number AJ277028.
CHO-K1 cells were maintained in growth medium consisting of α-MEM, 10% FBS (Hyclone), and 100 IU/mL of penicillin-100 μg/mL of streptomycin mixed solution (Nacalai Tesque, Japan) at 37° C. in an environment of humidified 95% air and 5% CO2. […] 24 hr after transfection, neomycin-resistant cells were selected using 1 mg/mL G418 (Nacalai Tesque). […]
(5) The Fura-2 fluorescent intensity was monitored at a wavelength of 340 nm and at 380 nm, respectively, at a rate of 0.5 Hz for a total of 240 seconds.

Aqueous solubility = format: physicochemical
[3] = Bioavailability following oral administration; format: in vivo
[4] = Plasma concentration after administration to an animal; format: in vivo
human TRPV1 [5] = target: T1, human TRPV1; test: Capsaicin-based assay, Protocol 2 (hCAP-CHO); format: cell-based; details: TRPV1/CHO cells, 100 nM capsaicin; mean ± SEM; read-out: TRPV1 IC50 Potency Human Capsaicin CHO (hCAP-CHO)
Source text: The TRPV1/CHO cell line was generated as described below. […] The resulting PCR products were purified from agarose gels using Gel Band Purification Kit (GE Healthcare Bioscience) and were subcloned into pCR-Blunt vector (Invitrogen). The cloned cDNA was fully sequenced using a fluorescent dye-terminator reagent (BigDye Terminator ver3.1 Cycle Sequencing Kit, Applied Biosystems) and ABI Prism 3100 genetic analyzer (Applied Biosystems). The pCR-Blunt vector containing the hTRPV1 cDNA was subjected to restriction digestion with EcoR1. The restriction fragment was subcloned into expression vector pcDNA3.1(-) (Invitrogen) and named pcDNA3.1(-)-hVR1 plasmid. The sequence of the cDNA encoding TRPV1 is available at GenBank accession number AJ277028. […] The cells were transfected with the pcDNA3.1(-)-hVR1 plasmid using FuGENE6 (Roche) according to the manufacturer's protocol. 24 hr after transfection, neomycin-resistant cells were selected using 1 mg/mL G418 (Nacalai Tesque). […] The cells expressing hTRPV1 were cultured in the growth medium supplemented with 1 mg/mL G418. […] Subsequently, the cells were loaded by incubation in 0.1 mL of wash buffer containing Fluo-4 at 3 μM final concentration. After 1 hour, the cells were washed twice with 0.2 mL wash buffer and resuspended in 0.1 mL wash buffer. The plates were then transferred to a Fluorescence Imaging Plate Reader (Molecular Devices). Fluorescence intensity was monitored for 15 seconds to establish a baseline. […] The final concentration of the compound was adjusted to range from 100 μM to 1.5625 μM. […] Data were collected over the entire time course and analyzed using Excel and the curve-fitting formula GraphPad Prism.

In the case of `O=C(Nc1ccc(C(F)(F)F)c(Cl)c1)N1CC=C(c2ncc([C@H](O)CO)cc2Cl)CC1` [Compound D2, (S)-3-Chloro-5-(1,2-dihydroxy-ethyl)-3′,6′-dihydro-2′H-[2,4]bipyridinyl-1′-carboxylic acid (3-chloro-4-trifluoromethyl-phenyl)amide], the ED50 ([1]; 3 hours after administration) is reported as 0.95 mg/kg, the “maximum % reversal of FCA-induced thermal hyperalgesia” value ([1]; 5 hours after administration) is reported as 78.7% and the ED50 ([1]; 5 hours after administration) is reported as 1.63 mg/kg.
In the case of `N#CCc1cnc(C2=CCN(C(=O)Nc3ccc(C(F)(F)F)cc3)CC2)c(Cl)c1` [Compound E6, 4-(3-chloro-5-(cyanomethyl)pyridin-2-yl)-N-(4-(trifluoromethyl)phenyl)-5,6-dihydropyridine-1(2H)-carboxamide], the IC50 (human TRPV1 [2]) is reported as 164 nM, the “aqueous solubility at pH 1.2” value (Aqueous solubility; pH 1.2) is reported as 27.2 μM and the “aqueous solubility at pH 6.8” value (Aqueous solubility; pH 6.8) is reported as 9.0 μM.
Molecule `O=C(Nc1ccc(C(F)(F)F)cn1)N1CCC(F)(c2ncc([C@H](O)CO)cc2Cl)CC1` [Compound G1] has a bioavailability ([3]; in vivo, read-out: bioavailable following oral administration) of 70.7%.
With `CC(O)(CO)c1cnc(C2=CCN(C(=O)Nc3ccc(C(F)(F)F)cc3)CC2)c(Cl)c1` (stereo not shown) [Compound R6] the “bioavailable following oral administration” value [3] was 68.9%, the “time to maximum plasma concentration after administration” value ([4]; animal plasma) was 1.85 h and the “maximum plasma concentration relative to the maximum for compound 200” value ([4]; animal plasma, for a given dose) was 5.3 times. For the same molecule, the “plasma concentration up to 24 h compared with compound 200” value ([4]; up to 24 h) was “consistently greater”.
`O=C(Nc1ccc(OC(F)(F)F)c(Cl)c1)N1CC=C(c2ncc([C@H](O)CO)cc2Cl)CC1` [Compound Y1, (S)-3-Chloro-5-(1,2-dihydroxy-ethyl)-3′,6′-dihydro-2′H-[2,4]bipyridinyl-1′-carboxylic acid (3-chloro-4-trifluoromethoxy-phenyl)amide] gave an IC50 (human TRPV1 [2]) of 13.5 ± 1.2 nM and an IC50 (human TRPV1 [5]) of 74.7 ± 18.4 nM.

— patent publication US9365563B2, “TRPV1 antagonists including dihydroxy substituent and uses thereof” (Purdue Pharma L.P., priority 2007, dated 2016)
